Assay [1] concerns phosphoinositide-specific phospholipase C. The settings on record: reported for manoalide, Bennett et al; cited from earlier work.
Assay [2] deals with bee venom phospholipase A2 (Apis mellifera, UniProt P00630). In words: biochemical.
For assay [3] the following is noted: prior art; cited from earlier work.

Molecules are shown by their SMILES.

Sequence of bee venom phospholipase A2 (P00630 34-167 limits assumed): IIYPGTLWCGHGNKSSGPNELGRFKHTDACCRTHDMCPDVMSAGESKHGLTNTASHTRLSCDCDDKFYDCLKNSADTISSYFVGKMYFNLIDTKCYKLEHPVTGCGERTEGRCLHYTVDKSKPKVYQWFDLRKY

With `CC1=C(CC/C(C)=C/CCC2=CCC(C3=CC(=O)OC3O)OC2O)C(C)(C)CCC1` (stereo not drawn) [Compound 1], the “inhibition of phosphoinositide-specific phospholipase C” value in assay [1] is on record as “inhibition”. In addition, half-maximal inhibition in assay [2] (IC50) required 30 nM. For the same compound, in assay [3], the biological properties entry is “anti-inflammatory,immunosuppressive and analgesic properties”.
Turning to `CC1=C(CC/C(C)=C/CCC(C=O)=CCC(O)C2=CC(=O)OC2O)C(C)(C)CCC1` (stereo not drawn) [Compound 2], in assay [3], the biological properties result is reported as “anti-inflammatory activity”.
As for `CC1=C(CC/C(C)=C/CCC(C=O)=CC=CC2=CC(=O)OC2O)C(C)(C)CCC1` (stereo not drawn) [Compound 3], in assay [3], the biological properties result was “anti-inflammatory activity”.
In turn, `CCCCCCCCCCCCNS(=O)(=O)/C=C/C1=CC(=O)OC1O` (stereo not drawn) [Compound 4, 4-[2-(N-Dodecylsulfonamido)ethenyl]-5-hydroxy-2(5H)-furanone] gave a 50% inhibitory concentration (IC50) in assay [2] of 40 nM.
Still for that read-out and setting: under `CCCCCCCCCCCCNS(=O)(=O)CC(O)C1=CC(=O)OC1O` (stereo not drawn) [Compound 5, 4-[1-Hydroxy-2-(N-dodecylsulfonamido)]ethyl-5-hydroxy-2(5H)-furanone] stands 100 nM; under `CCCCCCCCCCCCNS(=O)(=O)CC(OC(C)=O)C1=CC(=O)OC1O` (stereo not drawn) [Compound 6, 4-[1-Acetoxy-2-(N-dodecylsulfonamido)]ethyl-5-hydroxy-2(5H)-furanone], 50 nM.
On the same count and under the same terms, for `CCCCCCCCCCCCNS(=O)(=O)CC(OC(=O)CCCC(=O)O)C1=CC(=O)OC1O` (stereo not drawn) [Compound 7, 4-[1-Gluraroyloxy-2-(N-dodecylsulfonamido)]ethyl-5-hydroxy-2(5H)-furanone] the value was 50 nM.

Values taken from US5081261A, “4-(1-hydroxy-2-N-substituted sulfonamido) ethyl-5-hydroxy-2(5H)-furanones and 4-(N-substituted sulfonamido)-2-ethenyl-5-hydroxy-2(5H)-furanones as anti-inflammatory agents” (Allergan, Inc., priority 1990, dated 1992).
